Where two headings read alike, the source gives them in different places.
Assay: PK Phase (Group 2): plasma concentrations and pharmacokinetics of Compound 18 and its metabolite Compound 4 after once daily ocular instillation of Compound 18 nanosuspension for 7 days
Assay type: in vivo, New Zealand white rabbits
Conditions: male, New Zealand white, rabbit, plasma; for concentration at 8 h / concentration at 24 h: 0.821 mg/kg/day; for Cmax / Tmax / AUC(0-t): topical or ocular, 0.8 mg/kg; for AUC(0-t): read-out: AUC0-24
Source text: This example illustrates the procedures and results for the levels of Compound 18 and its metabolite Compound 4 in plasma and ocular tissues of normotensive rabbits following ocular instillation of Compound 18 once daily for 7 consecutive days.
Twenty five (25) male New Zealand white rabbits were divided into 5 groups of varying amounts of animals per group.
The Test article, Compound 18 was formulated as a 2% nanosuspension in DI water containing 0.2% PS80 (polyoxyethylenesorbitan, monooleate (Tween 80)) and 0.4% HPMC (hydroxypropylmethylcellulose) at pH 6.77. Referred to herein as “Compound 18 nanosuspension.”
The study consisted of three groups (Groups 1-3) of 19 male rabbits (NZW) that underwent once daily morning ocular installation (1 eyedrop) for 7 consecutive days (Day 0-6). Groups 4-5 each consisted of 3 male rabbits (NZW) that were not dosed.
Blood samples (1 mL) were collected from the jugular vein at the intervals set out below for each group. The samples were then inverted several times following collection and held on wet ice until centrifuged. Samples were centrifuged within 60 minutes of collection under refrigeration (set at 5° C. for 10 minutes at 2000 g. […]
Plasma and tissue samples from treated animals (Groups 1-3) were analyzed for Compound 18 and its metabolite Compound 4 concentrations by LC-MS/MS.
Pharmacokinetic analysis was conducted using WinNonlin Version 6.2.1 (Pharsight, Mountain View, Calif.), operating as a validated software system. Noncompartmental analysis was conducted using the extravascular administration model for ocular instillation dosing.
The peak plasma concentration, time to achieve peak plasma concentration, half-life, and area under the plasma concentration-time curve (Cmax, Tmax, T1/2, and AUC) were calculated from the PK phase individual animal plasma concentrations for each sampling time/dose group for Compound 18 and its metabolite Compound 4.
BA Assay: Quantitation Range 0.05 to 100 ng/mL for Compound 18, 0.15 to 100 ng/mL for Compound 4.
Plasma calibration standards (PLSTD-A) with Compound 18 concentrations ranging from 0.0500 to 100 ng/mL were prepared by spiking control rabbit plasma with appropriate calibration curve spiking solutions (SS-A). PLQC-A samples with concentrations of 0.150, 5.00, 50.0, and 80.0 ng/mL were prepared by spiking control rabbit plasma with appropriate SS-A-QC spiking solutions.
Plasma calibration standards (PLSTD-B) with Compound 4 concentrations ranging from 0.150 to 100 ng/mL were prepared by spiking control rabbit plasma with appropriate calibration curve spiking solutions (SS-B). PLQC-B samples with concentrations of 0.450, 5.00, 50.0, and 80.0 ng/mL were prepared by spiking control rabbit plasma with appropriate SS-B-QC spiking solutions. PLQC-B-Dil samples at 800 ng/mL were prepared by spiking control rabbit plasma with the SS-B-QC-Dil spiking solution at 16,000 ng/mL, and then diluted 20× with control rabbit plasma prior to extraction.
1. Thaw plasma standards, plasma QC samples, ocular tissue QC samples, incurred plasma samples and ocular tissue samples (AH/VH) (if applicable) on wet ice. Control plasma can be thawed in tepid water. Vortex before taking aliquots.
2. Pipet 50 μL of water for Reagent Blank, 50 μL of control plasma for Double Blank and Blank, 50 μL of pre-spiked plasma for Standards and QC samples, 50 μL of incurred plasma samples (if applicable) into a 96 well plate.
5. Add 200 μL of working internal standard (WIS) solution to all remaining samples.
6. Seal the plate and vortex for approximately 5 minutes. Centrifuge the plate at 3500 rpm for 10 minutes at ˜4° C.
7. Transfer ˜200 μL of each sample supernatant into the appropriate wells of a 96 well plate. Submit for LC MS/MS analysis.
A total of 25 rabbits were used for this study, including 19 treated rabbits and 6 control rabbits. […]

[1] = other: ocular instillation (eye drop), Mean of 4 animals, BQL set to 0, read-out: Day 7 Compound 18 Plasma Concentration
[2] = other: ocular instillation (eye drop), animal 207666, read-out: Day 7 Compound 18 Plasma Concentration
[3] = other: ocular instillation, 0.8 mg/kg/day, Mean of 4 animals, BQL set to 0, read-out: Day 1 Compound 18 Plasma Concentration
[4] = other: ocular instillation, 0.8 mg/kg/day, animal 207666, read-out: Day 1 Compound 18 Plasma Concentration
[5] = other: ocular instillation, 0.8 mg/kg/day, animal 207667, read-out: Day 1 Compound 18 Plasma Concentration
[6] = Day 1, Compound 18 0.8 mg/kg ocular instillation, Mean, n=4
[7] = Day 1, Compound 18 0.8 mg/kg ocular instillation, animal 207664
[8] = Day 1, Compound 18 0.8 mg/kg ocular instillation, animal 207665
[9] = Day 1, Compound 18 0.8 mg/kg ocular instillation, animal 207666
[10] = Day 1, Compound 18 0.8 mg/kg ocular instillation, animal 207667
[11] = Day 7, Compound 18 0.8 mg/kg ocular instillation, Mean, n=4
[12] = Day 7, Compound 18 0.8 mg/kg ocular instillation, animal 207664
[13] = Day 7, Compound 18 0.8 mg/kg ocular instillation, animal 207665
[14] = Day 7, Compound 18 0.8 mg/kg ocular instillation, animal 207666
[15] = Day 7, Compound 18 0.8 mg/kg ocular instillation, animal 207667

SMILES: CCCc1nn(C)c2c(=O)[nH]c(-c3cc(S(=O)(=O)N4CC(CCCO[N+](=O)[O-])C4)ccc3OCC)nc12 [Compound 18, 3-(1-((4-ethoxy-3-(1-methyl-7-oxo-3-propyl-6,7-dihydro-1H-pyrazolo[4,3-d]pyrimidin-5-yl)phenyl)sulfonyl)azetidin-3-yl)propyl nitrate]
- concentration at 8 h [1]: 0.0279 ng/mL
- concentration at 8 h (other: ocular instillation (eye drop), animal 207665, read-out: Day 7 Compound 18 Plasma Concentration): 0.0505 ng/mL
- concentration at 8 h [2]: 0.0611 ng/mL
- concentration at 24 h (other: ocular instillation (eye drop), Mean of 4 animals, BQL set to 0, read-out: Day 1 Compound 18 Plasma Concentration): 0.0171 ng/mL
- concentration at 24 h [1]: 0.0401 ng/mL
- concentration at 24 h (other: ocular instillation (eye drop), animal 207666, read-out: Day 1 Compound 18 Plasma Concentration): 0.0682 ng/mL
- concentration at 24 h [2]: 0.0989 ng/mL
- concentration at 24 h (other: ocular instillation (eye drop), animal 207667, read-out: Day 7 Compound 18 Plasma Concentration): 0.0614 ng/mL
- concentration at 0.5 h (other: ocular instillation (eye drop), 2 mg/day, animal 207664, read-out: Day 1 Compound 18 Plasma Concentration): 0.0863 ng/mL
- concentration at 0.5 h [3]: 0.161 ng/mL
- concentration at 0.5 h (other: ocular instillation, 0.8 mg/kg/day, animal 207665, read-out: Day 1 Compound 18 Plasma Concentration): 0.0721 ng/mL
- concentration at 0.5 h [4]: 0.313 ng/mL
- concentration at 0.5 h [5]: 0.171 ng/mL
- concentration at 1 h [3]: 0.0601 ng/mL
- concentration at 1 h [4]: 0.183 ng/mL
- concentration at 1 h [5]: 0.0575 ng/mL
- Cmax [6]: 0.161 ± 0.111 ng/mL
- Tmax [6]: 30 min
- AUC(0-t) [6]: 0.311 ± 0.488 ng·h/mL
- Cmax [7]: 0.0863 ng/mL
- Tmax [7]: 30 min
- AUC(0-t) [7]: 0.0216 ng·h/mL
- Cmax [8]: 0.0721 ng/mL
- Tmax [8]: 30 min
- AUC(0-t) [8]: 0.018 ng·h/mL
- Cmax [9]: 0.313 ng/mL
- Tmax [9]: 30 min
- AUC(0-t) [9]: 1.04 ng·h/mL
- Cmax [10]: 0.171 ng/mL
- Tmax [10]: 30 min
- AUC(0-t) [10]: 0.17 ng·h/mL
- Cmax [11]: 0.17 ± 0.105 ng/mL
- Tmax [11]: 156 ± 216 min
- AUC(0-t) [11]: 0.754 ± 0.794 ng·h/mL
- Cmax [12]: 0.306 ng/mL
- Tmax [12]: 60 min
- AUC(0-t) [12]: 0.372 ng·h/mL
- Cmax [13]: 0.0505 ng/mL
- Tmax [13]: 480 min
- AUC(0-t) [13]: 0.101 ng·h/mL
- Cmax [14]: 0.163 ng/mL
- Tmax [14]: 30 min
- AUC(0-t) [14]: 1.9 ng·h/mL
- Cmax [15]: 0.161 ng/mL
- Tmax [15]: 60 min
- AUC(0-t) [15]: 0.644 ng·h/mL

From patent publication US20220153746A1, “NITROGEN OXIDE-DONATING PDE-5 AND/OR PDE-6 INHIBITOR COMPOUNDS, AND USES THEREOF” (ILDONG PHARMACEUTICAL CO., LTD., priority 2020, published 2022)
